# From US12077503B2, “Substituted cyclic amides and their use as herbicides” (FMC CORPORATION, priority 2015, dated 2024)
# Experiments:
# Type in all cases: in vivo
# [1] = test system: barnyardgrass (Echinochloa crus-galli); assay: Test G Post-Emergence Protocol; details: Echinochloa crus-galli, post-emergence, 312 h; for pest or weed control at 15.625 g/ha: 15.625 g ai/ha, evaluated after 13 days (100=total damage to plant; 0=no damage to plant), read-out: Barnyardgrass damage rating; for pest or weed control at 62.5 g/ha: 62.5 g ai/ha, read-out: Barnyardgrass damage rating (100=total damage to plant; 0=no damage to plant); for pest or weed control at 62.5 g/ha / pest or weed control at 250 g/ha: evaluated after 13 days; for pest or weed control at 250 g/ha: 250 g ai/ha, read-out: damage to plant, Barnyardgrass (100=total damage to plant; 0=no damage to plant)
# Summary of the method: (§1)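 Sow in soil; grow 8 d (24/16 °C, 14 h light, 65% humidity); spray 15.625/62.5/250 g/ha in acetone:water 50:50 + 0.5% Tween 20; grow on, water twice daily; score damage 0–100 at 13 d.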
# [2] = test system: velvetleaf (Abutilon theophrasti); assay: Test G Post-Emergence Protocol; details: Abutilon theophrasti, post-emergence, 312 h; for pest or weed control at 15.625 g/ha: 15.625 g ai/ha, evaluated after 13 days (100=total damage to plant; 0=no damage to plant), read-out: Velvetleaf damage rating; for pest or weed control at 62.5 g/ha: 62.5 g ai/ha, read-out: Velvetleaf damage rating (100=total damage to plant; 0=no damage to plant); for pest or weed control at 62.5 g/ha / pest or weed control at 250 g/ha: evaluated after 13 days; for pest or weed control at 250 g/ha: 250 g ai/ha, read-out: damage to plant, Velvetleaf (100=total damage to plant; 0=no damage to plant)
# Summary of the method: as §1
# [3] = test system: giant foxtail (Setaria faberi); assay: Test G Post-Emergence Protocol; details: Setaria faberi, post-emergence, 312 h; for pest or weed control at 15.625 g/ha: 15.625 g ai/ha, evaluated after 13 days (100=total damage to plant; 0=no damage to plant), read-out: Foxtail, Giant damage rating; for pest or weed control at 62.5 g/ha: 62.5 g ai/ha, read-out: Foxtail, Giant damage rating (100=total damage to plant; 0=no damage to plant); for pest or weed control at 62.5 g/ha / pest or weed control at 250 g/ha: evaluated after 13 days; for pest or weed control at 250 g/ha: 250 g ai/ha, read-out: damage to plant, Foxtail, Giant (100=total damage to plant; 0=no damage to plant)
# Summary of the method: as §1
# [4] = test system: ivy-leaved morning glory (Ipomoea hederacea); assay: Test G Post-Emergence Protocol; details: Ipomoea, post-emergence, 312 h; for pest or weed control at 15.625 g/ha: 15.625 g ai/ha, evaluated after 13 days (100=total damage to plant; 0=no damage to plant), read-out: Morningglory, Ivy-leaved damage rating; for pest or weed control at 62.5 g/ha: 62.5 g ai/ha, read-out: Morningglory, Ivy-leaved damage rating (100=total damage to plant; 0=no damage to plant); for pest or weed control at 62.5 g/ha / pest or weed control at 250 g/ha: evaluated after 13 days; for pest or weed control at 250 g/ha: 250 g ai/ha, read-out: damage to plant, Morningglory, Ivy-leaved (100=total damage to plant; 0=no damage to plant)
# Summary of the method: as §1
# corn (Zea mays) [5] = assay: Test G Post-Emergence Protocol; details: Zea mays, post-emergence, 312 h; for plant injury at 15.625 g/ha: 15.625 g ai/ha, evaluated after 13 days (100=total damage to plant; 0=no damage to plant), read-out: Corn damage rating; for plant injury at 62.5 g/ha: 62.5 g ai/ha, read-out: Corn damage rating (100=total damage to plant; 0=no damage to plant); for plant injury at 62.5 g/ha / plant injury at 250 g/ha: evaluated after 13 days; for plant injury at 250 g/ha: 250 g ai/ha, read-out: damage to plant, Corn (100=total damage to plant; 0=no damage to plant)
# Summary of the method: as §1
# [6] = test system: redroot pigweed (Amaranthus retroflexus); assay: Test G Post-Emergence Protocol; details: Amaranthus retroflexus, post-emergence, 312 h; for pest or weed control at 15.625 g/ha: 15.625 g ai/ha, evaluated after 13 days (100=total damage to plant; 0=no damage to plant), read-out: Pigweed, Redroot damage rating; for pest or weed control at 62.5 g/ha: 62.5 g ai/ha, read-out: Pigweed, Redroot damage rating (100=total damage to plant; 0=no damage to plant); for pest or weed control at 62.5 g/ha / pest or weed control at 250 g/ha: evaluated after 13 days; for pest or weed control at 250 g/ha: 250 g ai/ha, read-out: damage to plant, Pigweed, Redroot (100=total damage to plant; 0=no damage to plant)
# Summary of the method: as §1
# [7] = test system: barnyardgrass (Echinochloa crus-galli); assay: Test G Pre-Emergence Protocol; details: Echinochloa crus-galli, pre-emergence, 312 h, evaluated after 13 days; for pest or weed control at 15.625 g/ha: 15.625 g ai/ha, read-out: Barnyard grass damage rating (100=total damage to plant; 0=no damage to plant); for pest or weed control at 62.5 g/ha: 62.5 g ai/ha, 100=total damage to plant, 0=no damage to plant, read-out: plant damage rating, Barnyardgrass; for pest or weed control at 250 g/ha: 250 g ai/ha, read-out: Barnyardgrass damage rating (100=total damage to plant; 0=no damage to plant)
# Summary of the method: (§2)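 Seeds were sown in standard soil and kept one day in a glasshouse (24/16° C day/night, 14 h light, 65% humidity), then sprayed with compound in acetone/water (50:50) containing 0.5% Tween 20 at 15.625, 62.5 or 250 g/ha. Damage was scored after 13 days (0 = none, 100 = total).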
# [8] = test system: velvetleaf (Abutilon theophrasti); assay: Test G Pre-Emergence Protocol; details: Abutilon theophrasti, pre-emergence, 312 h, evaluated after 13 days; for pest or weed control at 62.5 g/ha: 62.5 g ai/ha, 100=total damage to plant, 0=no damage to plant, read-out: plant damage rating, Velvetleaf; for pest or weed control at 250 g/ha: 250 g ai/ha
# Summary of the method: as §2
# [9] = test system: giant foxtail (Setaria faberi); assay: Test G Pre-Emergence Protocol; details: Setaria faberi, pre-emergence, 312 h, evaluated after 13 days; for pest or weed control at 15.625 g/ha: 15.625 g ai/ha; for pest or weed control at 15.625 g/ha / pest or weed control at 250 g/ha: read-out: Foxtail, Giant damage rating (100=total damage to plant; 0=no damage to plant); for pest or weed control at 62.5 g/ha: 62.5 g ai/ha, 100=total damage to plant, 0=no damage to plant, read-out: plant damage rating, Foxtail, Giant; for pest or weed control at 250 g/ha: 250 g ai/ha
# Summary of the method: as §2
# [10] = test system: ivy-leaved morning glory (Ipomoea hederacea); assay: Test G Pre-Emergence Protocol; details: Ipomoea, pre-emergence, 312 h, evaluated after 13 days; for pest or weed control at 15.625 g/ha: 15.625 g ai/ha, read-out: Morning-glory, Ivy-leaved damage rating (100=total damage to plant; 0=no damage to plant); for pest or weed control at 62.5 g/ha: 62.5 g ai/ha, 100=total damage to plant, 0=no damage to plant, read-out: plant damage rating, Morningglory, Ivy-leaved; for pest or weed control at 250 g/ha: 250 g ai/ha, read-out: Morningglory, Ivy-leaved damage rating (100=total damage to plant; 0=no damage to plant)
# Summary of the method: as §2
# corn (Zea mays) [11] = assay: Test G Pre-Emergence Protocol; details: Zea mays, pre-emergence, 312 h, evaluated after 13 days; for plant injury at 15.625 g/ha: 15.625 g ai/ha; for plant injury at 15.625 g/ha / plant injury at 250 g/ha: read-out: Corn damage rating (100=total damage to plant; 0=no damage to plant); for plant injury at 62.5 g/ha: 62.5 g ai/ha, 100=total damage to plant, 0=no damage to plant, read-out: plant damage rating, Corn; for plant injury at 250 g/ha: 250 g ai/ha
# Summary of the method: as §2
# [12] = test system: redroot pigweed (Amaranthus retroflexus); assay: Test G Pre-Emergence Protocol; details: Amaranthus retroflexus, pre-emergence, 312 h, evaluated after 13 days; for pest or weed control at 15.625 g/ha: 15.625 g ai/ha; for pest or weed control at 15.625 g/ha / pest or weed control at 250 g/ha: read-out: Pigweed, Redroot damage rating (100=total damage to plant; 0=no damage to plant); for pest or weed control at 62.5 g/ha: 62.5 g ai/ha, 100=total damage to plant, 0=no damage to plant, read-out: plant damage rating, Pigweed, Redroot; for pest or weed control at 250 g/ha: 250 g ai/ha
# Summary of the method: as §2
# [13] = read-out: Velvetleaf damage rating (100=total damage to plant; 0=no damage to plant)
compound,measurement,setting,value
COc1ccc(OC)c([C@H]2CN(C)C(=O)[C@@H]2C(=O)Nc2ccccc2F)c1 (racemic) [Compound 1453],pest or weed control at 15.625 g/ha,[1],0%
same,pest or weed control at 62.5 g/ha,[1],10%
same,pest or weed control at 250 g/ha,[1],10%
same,pest or weed control at 15.625 g/ha,[2],0%
same,pest or weed control at 62.5 g/ha,[2],0%
same,pest or weed control at 250 g/ha,[2],0%
same,pest or weed control at 15.625 g/ha,[3],10%
same,pest or weed control at 62.5 g/ha,[3],50%
same,pest or weed control at 250 g/ha,[3],50%
same,pest or weed control at 15.625 g/ha,[4],0%
same,pest or weed control at 62.5 g/ha,[4],0%
same,pest or weed control at 250 g/ha,[4],10%
same,plant injury at 15.625 g/ha,corn (Zea mays) [5],10%
same,plant injury at 62.5 g/ha,corn (Zea mays) [5],10%
same,plant injury at 250 g/ha,corn (Zea mays) [5],10%
same,pest or weed control at 15.625 g/ha,[6],0%
same,pest or weed control at 62.5 g/ha,[6],0%
same,pest or weed control at 250 g/ha,[6],0%
same,pest or weed control at 15.625 g/ha,[7],20%
same,pest or weed control at 62.5 g/ha,[7],40%
same,pest or weed control at 250 g/ha,[7],90%
same,pest or weed control at 62.5 g/ha,[8],0%
same,pest or weed control at 250 g/ha,[8]; [13],20%
same,pest or weed control at 15.625 g/ha,[9],40%
same,pest or weed control at 62.5 g/ha,[9],60%
same,pest or weed control at 250 g/ha,[9],90%
same,pest or weed control at 15.625 g/ha,[10],0%
same,pest or weed control at 62.5 g/ha,[10],0%
same,pest or weed control at 250 g/ha,[10],0%
same,plant injury at 15.625 g/ha,corn (Zea mays) [11],0%
same,plant injury at 62.5 g/ha,corn (Zea mays) [11],0%
same,plant injury at 250 g/ha,corn (Zea mays) [11],0%
same,pest or weed control at 15.625 g/ha,[12],0%
same,pest or weed control at 62.5 g/ha,[12],0%
same,pest or weed control at 250 g/ha,[12],0%
CN1C[C@H](c2ccc3c(c2)CCCC3)[C@@H](C(=O)Nc2cccc(F)c2F)C1=O (racemic) [Compound 1496],pest or weed control at 15.625 g/ha,[1],20%
same,pest or weed control at 62.5 g/ha,[1],50%
same,pest or weed control at 250 g/ha,[1],60%
same,pest or weed control at 15.625 g/ha,[2],0%
same,pest or weed control at 62.5 g/ha,[2],0%
same,pest or weed control at 250 g/ha,[2],20%
same,pest or weed control at 15.625 g/ha,[3],20%
same,pest or weed control at 62.5 g/ha,[3],60%
same,pest or weed control at 250 g/ha,[3],60%
same,pest or weed control at 15.625 g/ha,[4],0%
same,pest or weed control at 62.5 g/ha,[4],0%
same,pest or weed control at 250 g/ha,[4],0%
same,plant injury at 15.625 g/ha,corn (Zea mays) [5],10%
same,plant injury at 62.5 g/ha,corn (Zea mays) [5],20%
same,plant injury at 250 g/ha,corn (Zea mays) [5],50%
same,pest or weed control at 15.625 g/ha,[6],0%
same,pest or weed control at 62.5 g/ha,[6],0%
same,pest or weed control at 250 g/ha,[6],0%
same,pest or weed control at 15.625 g/ha,[7],0%
same,pest or weed control at 62.5 g/ha,[7],40%
same,pest or weed control at 250 g/ha,[7],80%
same,pest or weed control at 15.625 g/ha,"[8]; 15.625 g ai/ha, read-out: Velvetleaf damage rating (100=total damage to plant; 0=no damage to plant)",0%
same,pest or weed control at 62.5 g/ha,[8],0%
same,pest or weed control at 250 g/ha,[8]; [13],0%
same,pest or weed control at 15.625 g/ha,[9],0%
same,pest or weed control at 62.5 g/ha,[9],50%
same,pest or weed control at 250 g/ha,[9],80%
same,pest or weed control at 15.625 g/ha,[10],0%
same,pest or weed control at 62.5 g/ha,[10],0%
same,pest or weed control at 250 g/ha,[10],0%
same,plant injury at 15.625 g/ha,corn (Zea mays) [11],0%
same,plant injury at 62.5 g/ha,corn (Zea mays) [11],0%
same,plant injury at 250 g/ha,corn (Zea mays) [11],20%
same,pest or weed control at 15.625 g/ha,[12],0%
same,pest or weed control at 62.5 g/ha,[12],0%
same,pest or weed control at 250 g/ha,[12],0%
